Laboratory results as given in patent publication US20220388953A1, “COMPOUNDS WITH ANTIMICROBIAL ACTIVITY” (The Hong Kong Polytechnic University, priority 2018, published 2022).
Values after ≈ are worked out from the molar mass of the structure shown. Like-named read-outs stand apart in the source and are kept apart here.

How the values were obtained:
[1] = test system: Streptococcus pneumoniae (Klein) Chester (ATCC 49619); experiment: Antimicrobial assay, broth microdilution (CLSI), MIC; type: cell-based
Experimental: C3 derivatives were synthesized and antimicrobial activity measured against Streptococcus pneumoniae (MIC, minimum inhibitory concentration).
Bacterial Strains was used in this study is Streptococcus pneumoniae (Klein) Chester (ATCC® 49619™)
The antimicrobial activity of the compounds was determined by broth microdilution according to the Clinical & Laboratory Standards Institute (CLSI) guidelines. The test medium was cation-adjusted Mueller-Hinton broth (MH). Serial two-fold dilutions were performed for the tested chemicals starting from 256 μg/mL to 0.5 μg/mL, and the bacterial cell inoculum was adjusted to approximately 5×10^5 CFU/mL. Results were taken after 20 h of incubation at 37° C. The MIC was defined as the lowest concentration of antibiotic with no visible growth. Experiments were performed in duplicates.

[2] = ATCC49619, Table 1, Streptococcus pneumoniae ATCC 49619, 20 h at 37° C., read-out: MIC
[3] = Streptococcus pneumoniae, ATCC49619, 20 h
[4] = ATCC49619, Table 3, Streptococcus pneumoniae ATCC 49619, 20 h at 37° C., read-out: MIC

NC1CCCCC1Nc1ccc(C(=O)c2ccccc2C(=O)O)cc1[N+](=O)[O-] (stereo not drawn) [C3-28, 2-(4-((2-Aminocyclohexyl)amino)-3-nitrobenzoyl)benzoic Acid]
MIC [1, 2]: 256 µg/mL (≈ 668 µM)

O=C(O)c1ccccc1C(=O)c1ccc(Nc2ccccc2)c([N+](=O)[O-])c1 [C3-25, 2-(3-Nitro-4-(phenylamino)benzoyl)benzoic Acid]
MIC [1, 3]: 256 µg/mL (≈ 707 µM) | melting point: 184 to 186 °C

Cc1cccc(Nc2ccc(C(=O)c3ccccc3C(=O)O)cc2[N+](=O)[O-])c1 [C3-18, 2-(3-Nitro-4-(m-tolylamino)benzoyl)benzoic Acid]
MIC [1, 2]: 128 µg/mL (≈ 340 µM) | melting point: 90 to 92 °C

Cc1occc1Sc1ccc(C(=O)c2ccccc2C(=O)O)cc1[N+](=O)[O-] [C3-16, 2-(4-((2-Methylfuran-3-yl)thio)-3-nitrobenzoyl)benzoic Acid]
MIC [1, 2]: 256 µg/mL (≈ 668 µM) | melting point: 198 to 199 °C

Nc1ccccc1Sc1ccc(C2(O)c3ccccc3C(=O)N2c2ccccc2)cc1[N+](=O)[O-] (stereo not drawn) [C3-41]
MIC [1, 3]: > 256 µg/mL

Nc1ccccc1Sc1ccc(CNc2ccccc2C(=O)O)cc1[N+](=O)[O-] [C3-065, 2-((4-((2-Aminophenyl)thio)-3-nitrobenzyl)amino)benzoic Acid]
melting point: 201 to 203 °C

Cc1ccc(C(=O)O)cc1NCc1ccc(Sc2ccc(Cl)c(Cl)c2)c([N+](=O)[O-])c1 [C3-075, 3-((4-((3,4-Dichlorophenyl)thio)-3-nitrobenzyl)amino)-4-methylbenzoic Acid]
melting point: 222 to 224 °C

Nc1cccc(Sc2ccc(C(=O)c3ccccc3C(=O)O)cc2[N+](=O)[O-])c1 [C3-5, 2-(4-((3-Aminophenyl)thio)-3-nitrobenzoyl)benzoic Acid]
MIC [1, 3]: 64 µg/mL (≈ 162 µM)

CC(C)(C)c1cccc(Nc2ccc(C(=O)c3ccccc3C(=O)O)cc2[N+](=O)[O-])c1 [C3-21, 2-(4-((3-(tert-Butyl)phenyl)amino)-3-nitrobenzoyl)benzoic Acid]
MIC [1, 2]: 256 µg/mL (≈ 612 µM) | melting point: 110 to 112 °C

O=C(O)c1ccc(N2CCOCC2)c(NCc2ccc(Sc3ccc(Cl)c(Cl)c3)c([N+](=O)[O-])c2)c1 [C3-073, 3-((4-((3,4-Dichlorophenyl)thio)-3-nitrobenzyl)amino)-4-morpholinobenzoic Acid]
melting point: 147 to 149 °C

O=C(Nc1ccccc1C(=O)O)c1ccc(Sc2ccc(Cl)c(Cl)c2)c([N+](=O)[O-])c1 [C3-077, 2-(4-((3,4-Dichlorophenyl)thio)-3-nitrobenzamido)benzoic Acid]
melting point: 279 to 281 °C

O=C(O)c1ccccc1C(=O)c1ccc(Sc2ccc(Cl)c(Cl)c2)c([N+](=O)[O-])c1 [C3-13, 2-(4-((3,4-Dichlorophenyl)thio)-3-nitrobenzoyl)benzoic Acid]
MIC [1, 3]: 8 µg/mL (≈ 17.8 µM)

O=C(O)c1ccc(Cl)c(NCc2ccc(Sc3ccc(Cl)c(Cl)c3)c([N+](=O)[O-])c2)c1 [C3-071, 4-Chloro-3-((4-((3,4-dichlorophenyl)thio)-3-nitrobenzyl)amino)benzoic Acid]
melting point: 196 to 198 °C

Nc1cc(C(=O)c2ccccc2C(=O)O)ccc1Sc1ccc(Cl)c(Cl)c1 [C3-094, 2-(3-Amino-4-((3,4-dichlorophenyl)thio)benzoyl)benzoic Acid]
melting point: 188 to 190 °C

Nc1ccccc1Sc1ccc(C2(O)c3ccccc3C(=O)N2c2cccc(C(=O)O)c2)cc1[N+](=O)[O-] (stereo not drawn) [C3-43]
MIC [1, 3]: 64 µg/mL (≈ 125 µM)

Nc1ccccc1Sc1ccc(C(=O)Nc2ccccc2C(=O)O)cc1[N+](=O)[O-] [C3-057, 2-(4-((2-Aminophenyl)thio)-3-nitrobenzamido)benzoic Acid]
melting point: 259 to 261 °C

O=C(O)c1ccc(Cl)cc1NCc1ccc(Sc2ccc(Cl)c(Cl)c2)c([N+](=O)[O-])c1 [C3-087, 4-Chloro-2-((4-((3,4-dichlorophenyl)thio)-3-nitrobenzyl)amino)benzoic Acid]
melting point: 220 to 222 °C

Nc1ccccc1Sc1ccc(C2(O)c3ccccc3C(=O)N2Cc2ccccc2F)cc1[N+](=O)[O-] (stereo not drawn) [C3-48]
MIC [1, 4]: > 256 µg/mL

N#Cc1ccccc1NCc1ccc(Sc2ccc(Cl)c(Cl)c2)c([N+](=O)[O-])c1 [C3-091, 2-((4-((3,4-Dichlorophenyl)thio)-3-nitrobenzyl)amino)benzonitrile]
melting point: 173 to 175 °C

O=C(O)c1ccc(Br)c(NCc2ccc(Sc3ccc(Cl)c(Cl)c3)c([N+](=O)[O-])c2)c1 [C3-078, 4-Bromo-3-((4-((3,4-dichlorophenyl)thio)-3-nitrobenzyl)amino)benzoic Acid]
melting point: 231 to 233 °C

Nc1ccccc1Sc1ccc(C(=O)Nc2ccc(C(=O)O)cc2)cc1[N+](=O)[O-] [C3-056, 4-(4-((2-Aminophenyl)thio)-3-nitrobenzamido)benzoic Acid]
melting point: 247 to 249 °C

NC(=O)c1cccc(NCc2ccc(Sc3ccc(Cl)c(Cl)c3)c([N+](=O)[O-])c2)c1 [C3-066, 3-((4-((3,4-Dichlorophenyl)thio)-3-nitrobenzyl)amino)benzamide]
melting point: 158 to 160 °C

O=C(O)c1cccc(NCc2ccc(Sc3ccc(Cl)c(Cl)c3)c([N+](=O)[O-])c2)c1 [C3-047, 3-((4-((3,4-Dichlorophenyl)thio)-3-nitrobenzyl)amino)benzoic Acid]
melting point: 224 to 226 °C

O=C(O)c1cc(NCc2ccc(Sc3ccc(Cl)c(Cl)c3)c([N+](=O)[O-])c2)ccc1Cl [C3-079, 2-Chloro-5-((4-((3,4-dichlorophenyl)thio)-3-nitrobenzyl)amino)benzoic Acid]
melting point: 148 to 150 °C

Nc1cc(Cl)ccc1Sc1ccc(C(=O)c2ccccc2C(=O)O)cc1[N+](=O)[O-] [C3-10, 2-(4-((2-Amino-4-chlorophenyl)thio)-3-nitrobenzoyl)benzoic Acid]
MIC [1, 3]: 64 µg/mL (≈ 149 µM)

O=[N+]([O-])c1cc(CNc2cccc(CO)c2)ccc1Sc1ccc(Cl)c(Cl)c1 [C3-080, (3-((4-((3,4-Dichlorophenyl)thio)-3-nitrobenzyl)amino)phenyl)methanol]
melting point: 118 to 120 °C

Nc1ccccc1Sc1ccc(C2(O)NC(=O)c3ccccc32)cc1[N+](=O)[O-] (stereo not drawn) [C3-39]
MIC [1, 4]: 32 µg/mL (≈ 81.3 µM)

CN(C)c1cc(C(=O)c2ccccc2C(=O)O)ccc1Sc1ccc(Cl)c(Cl)c1 [C3-095, 2-(4-((3,4-Dichlorophenyl)thio)-3-(dimethylamino)benzoyl)benzoic Acid]
melting point: 144 to 146 °C

NC(=O)c1cccc(N2C(=O)c3ccccc3C2(O)c2ccc(Sc3ccccc3N)c([N+](=O)[O-])c2)c1 (stereo not drawn) [C3-42]
MIC [1, 4]: 32 µg/mL (≈ 62.4 µM)

O=C(O)c1cccc(NC(=O)c2ccc(Sc3ccc(Cl)c(Cl)c3)c([N+](=O)[O-])c2)c1 [C3-048, 3-(4-((3,4-Dichlorophenyl)thio)-3-nitrobenzamido)benzoic Acid]
melting point: 280 to 282 °C

O=C(O)c1ccccc1NCc1ccc(Sc2ccc(Cl)c(Cl)c2)c([N+](=O)[O-])c1 [C3-081, 2-((4-((3,4-Dichlorophenyl)thio)-3-nitrobenzyl)amino)benzoic Acid]
melting point: 171 to 173 °C

NC(=O)c1ccccc1NCc1ccc(Sc2ccc(Cl)c(Cl)c2)c([N+](=O)[O-])c1 [C3-090, 2-((4-((3,4-Dichlorophenyl)thio)-3-nitrobenzyl)amino)benzamide]
melting point: 184 to 186 °C

NS(=O)(=O)c1cccc(NCc2ccc(Sc3ccc(Cl)c(Cl)c3)c([N+](=O)[O-])c2)c1 [C3-074, 3-((4-((3,4-Dichlorophenyl)thio)-3-nitrobenzyl)amino)benzenesulfonamide]
melting point: 191 to 193 °C

O=C(O)c1ccccc1C(=O)c1ccc(Nc2cccc(Cl)c2)c([N+](=O)[O-])c1
melting point: 159 to 161 °C

Nc1ccccc1Sc1ccc(C(=O)Nc2cccc(C(=O)O)c2)cc1[N+](=O)[O-] [C3-026, 3-(4-((2-Aminophenyl)thio)-3-nitrobenzamido)benzoic Acid]
melting point: 251 to 252 °C

Nc1ccccc1Sc1ccc(CNc2cccc(C(=O)O)c2)cc1[N+](=O)[O-] [C3-027, 3-((4-((2-Aminophenyl)thio)-3-nitrobenzyl)amino)benzoic Acid]
melting point: 105 to 107 °C

O=C(O)c1ccc(F)c(NCc2ccc(Sc3ccc(Cl)c(Cl)c3)c([N+](=O)[O-])c2)c1 [C3-082, 3-((4-((3,4-Dichlorophenyl)thio)-3-nitrobenzyl)amino)-4-fluorobenzoic Acid]
melting point: 237 to 239 °C

Cc1cccc(N2C(=O)c3ccccc3C2(O)c2ccc(Sc3ccccc3N)c([N+](=O)[O-])c2)c1 (stereo not drawn) [C3-45]
MIC [1, 4]: > 256 µg/mL

Nc1ccccc1Sc1ccc(C2(O)c3ccccc3C(=O)N2c2cccc(Cl)c2)cc1[N+](=O)[O-] (stereo not drawn) [C3-46]
MIC [1, 3]: > 256 µg/mL

CC(C)(C)c1cccc(N2C(=O)c3ccccc3C2(O)c2ccc(Sc3ccccc3N)c([N+](=O)[O-])c2)c1 (stereo not drawn) [C3-44]
MIC [1, 4]: > 256 µg/mL

Nc1ccccc1Sc1ccc(C2(O)c3ccccc3C(=O)N2Cc2ccccc2)cc1[N+](=O)[O-] (stereo not drawn) [C3-47]
MIC [1, 4]: > 256 µg/mL

O=C(O)c1ccccc1C(=O)c1ccc(Sc2ccc(Cl)c(Cl)c2)cc1 [C3-083, 2-(4-((3,4-Dichlorophenyl)thio)benzoyl)benzoic Acid]
melting point: 164 to 166 °C

Nc1ccc(Sc2ccc(C(=O)c3ccccc3C(=O)O)cc2[N+](=O)[O-])cc1 [C3-6, 2-(4-((4-Aminophenyl)thio)-3-nitrobenzoyl)benzoic Acid]
MIC [1, 3]: 128 µg/mL (≈ 325 µM)

O=C(O)c1c(Cl)cccc1NCc1ccc(Sc2ccc(Cl)c(Cl)c2)c([N+](=O)[O-])c1 [C3-088, 2-Chloro-6-((4-((3,4-Dichlorophenyl)thio)-3-nitrobenzyl)amino)benzoic Acid]
melting point: 204 to 206 °C
